From PMC5372560, “D-Amino Acid Position Influences the Anticancer Activity of Galaxamide Analogs: An Apoptotic Mechanism Study” (International Journal of Molecular Sciences, 2017)
Values after ≈ are worked out from the molar mass of the structure shown. Values joined by “and” are separate entries in the source; they are usually repeats but may differ in a detail not shown here. Identical values can stand only once. Where a SMILES comes first, the peptide text is derived from it. [ ]: non-standard residue; d: D form. NMeL = CN[C@@H](CC(C)C)C(=O)O

Legend:
[1] = test system: human breast adenocarcinoma cells (MDA-MB-435); format: cell-based; settings: 48 h
Experimental: (§1) Human hepatocellular cells (HepG2), human breast cancer cells (MCF-7), human breast adenocarcinoma cells (MDA-MB-435) and a human cervical carcinoma cell line (Hela) were selected as our in vitro cancerous cell models. The cells were all cultured in DMEM medium containing 10% fetal bovine serum, 1% penicillin-streptomycin and antifungal agent, incubated at 37 °C with 5% CO2 and 90% humidity. The cytotoxicity of Galaxamide and its analogs on the four cancerous cells was evaluated using the MTT method. […] After that, 20 µL MTT reagents were added to each well and incubated between 3–5 h according to the nature of cells; the color intensity of the cell culture at 570 nm was measured using a microplate spectrophotometer. Finally, the cell viability was calculated accordingly. Note: […]

[2] = test system: human breast cancer cells (MCF-7); format: cell-based; settings: 48 h
Experimental: as §1

[3] = test system: human cervical carcinoma cell line (Hela); format: cell-based; settings: 48 h
Experimental: as §1

[4] = test system: human hepatocellular cells (HepG2); format: cell-based; settings: 48 h
Experimental: as §1

HepG2 cells [5] = assay: Cell cycle analysis by propidium iodide staining, flow cytometry; format: cell-based, human; settings: 48 h, PI staining
Experimental: In particular, HepG2 cells were exposed to Galaxamide, Analog-4 and Analog-6 with concentrations of 0, 5, 10 and 15 µg/mL for 48 h. Generally, treatment with Galaxamide, Analog-4 and -6 all caused changes in the cell cycle of HepG2 cells, mainly in the sub-G1 stage, where a subdiploid peak was detected, indicating their apoptotic effects on HepG2 cells.
(§2) HepG2 cells were seeded in 6-well tissue culture plates at a concentration of 1 × 10^5 cells/well. Galaxamide and its analogs with a concentration of 0, 5, 10 and 15 µg/mL were added to the cell cultures and incubated for 48 h. After that, 5 µL Annexin V-fluorescein isothiocyanate (FITC) and 5 µL of PI were added for dual staining of the cells and analyzed by FACScan flow cytometry. Cell cycle and apoptotic cells were determined by counting the FITC-positive and PI-negative fractions.

HepG2 cells [6] = assay: Annexin V-FITC / PI dual staining, flow cytometry (apoptosis); format: cell-based, human; settings: 48 h
Experimental: To further study the apoptotic mechanism of Analog-6, the Annexin V-fluorescein isothiocyanate (FITC) and propidium iodide (PI) dual staining method was used. Briefly, HepG2 cells were treated with 0, 5, 10 and 15 µg/mL Analog-6 for 48 h. Then, cells were washed several times with PBS and stained by dual staining of two fluorescent dyes, Annexin V-FITC and PI, and analyzed by flow cytometry. Results are shown in Figure 5, where HepG2 cells exposed to Galaxamide were used as the control. Note that Q1, Q2, Q3 and Q4 in the figure represent four quadrants of necrotic cells, late apoptotic cells, normal cells and early apoptotic cells, respectively.
as §2

cleaved caspase-3 = assay: Western blot, cleaved caspase-3 expression; format: cell-based, human; settings: HepG2, 15 µg/mL, 48 h
Experimental: (§3) There are two major pathways involved in cells apoptosis: the mitochondria-mediated intrinsic pathway and the death receptor-mediated extrinsic pathway. To elucidate the possible mechanism of the apoptotic effects of Analog-6, Western blot experiments were performed. HepG2 cells were treated with 0, 5, 10 and 15 µg/mL Analog-6 for 48 h, and then expression of cleaved caspase-3, caspase-9 and poly(ADP-ribose) polymerase (PARP) was quantified, results are shown in Figure 6.
(§4) Target proteins were first extracted using Radio-Immunoprecipitation Assay (RIPA) buffer and quantified by the Bradford method. Then, proteins were transferred to a polyvinylidene difluoride (PVDF) membrane, and the membrane was blocked with 5% non-fat milk for 1 h and incubated with a primary antibody (Cell Signaling Technology, Danvers, MA, USA, rabbit monoclonal antibody, 1:1000) at 4 °C overnight. After that, the membrane was washed two times with TBST buffer (Tris-buffered saline with 0.1% Tween-20) and incubated with a secondary antibody (goat-anti-rabbit horseradish peroxidase (HRP)-conjugated 1:15,000) for 1 h under room temperature. Finally, the membrane was washed three times with TBST, and the intensity of the specific immunoreactive bands was detected by enhanced chemiluminescence.

caspase-9 = assay: Western blot, caspase-9 expression; format: cell-based, human; settings: HepG2, 15 µg/mL, 48 h
Experimental: as §3, §4

[7] = test system: poly(ADP-ribose) polymerase (PARP); assay: Western blot, cleaved PARP expression; format: cell-based, human; settings: HepG2, 15 µg/mL, 48 h
Experimental: as §3, §4

HepG2 cells [8] = assay: Hoechst 33342 staining, nuclear morphology; format: cell-based, human; settings: HepG2, increasing concentration up to 15 µg/mL, 48 h, fluorescence microscope
Experimental: We then investigated the effect of Galaxamide and Analog-6 on the cell morphology and nuclear integrity. HepG2 cells were treated with an increasing concentration of Analog-6 for 48 h and then stained by Hoechst 33342 (a DNA fluorescent dye). The effect of Galaxamide on HepG2 cells was used as a control. Noting that Hoechst 33342 is a DNA fluorescent dye, the fluorescently-stained DNA presents a blue color under the fluorescence microscope.
HepG2 cells were seeded in 6-well tissue culture plates at a concentration of 1 × 10^5 cells/well. Galaxamide and its analogs with a concentration of 0, 5, 10 and 15 µg/mL were added to the cell cultures and incubated for 48 h. After that, cells were fixed with 3.7% of paraformaldehyde for 10 min and washed three times with PBS. Then, Hoechst 33342 was added for cell staining, then visualized using a fluorescent microscope.

[9] = test system: human hepatocellular carcinoma HepG2; settings: in vitro, HepG2 cell line; cited from earlier work
Excerpt: (§5) In our initial work, a novel cyclic-pentapeptide named Galaxamide was isolated from a marine algae Galaxaura filamentosa collected from Xisha Island in the South China Sea. Galaxamide is a cyclic-pentapeptide composed of five L-leucines, including two N-methylated ones. N-methylated amino acid is an important component endowing the anticancer potential to the cyclopeptides.

[10] = test system: human renal cell carcinoma GRC-1; settings: in vitro, GRC-1 cell line; cited from earlier work
Excerpt: as §5

[11] = test system: human normal liver cell line L02; settings: cited from earlier work
Excerpt: In our previous work, we synthesized several Galaxamide analogs and tested their cytotoxicity on a normal cell line (human normal liver cell line L02) and a broad range of cancerous cell lines in vitro.

| IC50 (µg/mL) in Different Cell Lines, MDA-MB-435 [1] [µg/mL] | IC50 (µg/mL) in Different Cell Lines, MCF-7 [2] [µg/mL] | IC50 (µg/mL) in Different Cell Lines, Hela [3] [µg/mL] | IC50 (µg/mL) in Different Cell Lines, HepG2 [4] [µg/mL] | SMILES | G0/G1 cells (HepG2 cells [5]; HepG2, 5 µg/mL) [%] | G2/M cells (HepG2 cells [5]; HepG2, 5 µg/mL) [%] | S cells (HepG2 cells [5]; HepG2, 5 µg/mL) [%] | Sub-G1 cells (HepG2 cells [5]; HepG2, 5 µg/mL) [%] | G0/G1 cells (HepG2 cells [5]; HepG2, 10 µg/mL) [%] | G2/M cells (HepG2 cells [5]; HepG2, 10 µg/mL) [%] | S cells (HepG2 cells [5]; HepG2, 10 µg/mL) [%] | Sub-G1 cells (HepG2 cells [5]; HepG2, 10 µg/mL) [%] | G0/G1 cells (HepG2 cells [5]; HepG2, 15 µg/mL) [%] | G2/M cells (HepG2 cells [5]; HepG2, 15 µg/mL) [%] | S cells (HepG2 cells [5]; HepG2, 15 µg/mL) [%] | Sub-G1 cells (HepG2 cells [5]; HepG2, 15 µg/mL) | also measured |
| --- | --- | --- | --- | --- | --- | --- | --- | --- | --- | --- | --- | --- | --- | --- | --- | --- | --- |
| 7.67 ± 0.18 (≈ 12.2 µM) | 8.62 ± 0.26 (≈ 13.7 µM) | 4.2 ± 0.32 (≈ 6.69 µM) | 7.2 ± 0.15 (≈ 11.5 µM) | CC(C)C[C@@H]1NC(=O)[C@H](CC(C)C)N(C)C(=O)[C@@H](CC(C)C)NC(=O)[C@H](CC(C)C)N(C)C(=O)[C@H](Cc2ccccc2)NC1=O [Analog-4, Cyclo(Me-Leu-Leu-Phe-Me-Leu-D-Leu)] | 70.5 | 9.33 | 20.2 | 1.78 | 64.2 | 12.9 | 22.9 | 7.1 | 67.6 | 5.91 | 26.5 | 35.5% |  |
| 20.43 ± 0.23 (≈ 32.5 µM) | 15.21 ± 0.29 (≈ 24.2 µM) | 7.4 ± 0.33 (≈ 11.8 µM) | 10.72 ± 0.32 (≈ 17.1 µM) | CC(C)C[C@@H]1NC(=O)[C@@H](CC(C)C)N(C)C(=O)[C@H](CC(C)C)NC(=O)[C@H](CC(C)C)N(C)C(=O)[C@H](Cc2ccccc2)NC1=O [Analog-5, Cyclo(Me-D-Leu-Leu-Phe-Me-Leu-Leu] |  |  |  |  |  |  |  |  |  |  |  |  |  |
| 6.76 ± 0.22 (≈ 10.8 µM) | 8.15 ± 0.18 (≈ 13 µM) | 3.42 ± 0.25 (≈ 5.45 µM) | 4.1 ± 0.20 (≈ 6.53 µM) | CC(C)C[C@@H]1NC(=O)[C@H](CC(C)C)N(C)C(=O)[C@H](Cc2ccccc2)NC(=O)[C@@H](CC(C)C)NC(=O)[C@H](CC(C)C)N(C)C1=O [Analog-6, Cyclo(Me-Leu-D-Leu-Phe-Me-Leu-Leu)] | 61.5 | 21.6 | 16.9 | 3.30 | 56.8 | 14.4 | 28.8 | 5.36 | 88.6 | 4.22 | 7.18 | 67.9% and 68% | Q4, early apoptotic cells (HepG2 cells [6]; HepG2, 5 µg/mL): 7.3%; Q4, early apoptotic cells (HepG2 cells [6]; HepG2, 10 µg/mL): 16.9%; Q4, early apoptotic cells (HepG2 cells [6]; HepG2, 15 µg/mL): 49.4% and ~50%; increased fold of cleaved caspase-3 expression (cleaved caspase-3): 3.4 fold; increased fold of caspase-9 expression (caspase-9): 3.3 fold; increased fold of PARP expression [7]: 6.8 fold; nuclei morphology after Hoechst 33342 staining (HepG2 cells [8]): severely damaged |

Continued, compound first:

| SMILES | IC50 (µg/mL) in Different Cell Lines, MDA-MB-435 [1] [µg/mL] | IC50 (µg/mL) in Different Cell Lines, MCF-7 [2] [µg/mL] | IC50 (µg/mL) in Different Cell Lines, Hela [3] [µg/mL] | IC50 (µg/mL) in Different Cell Lines, HepG2 [4] [µg/mL] | G0/G1 cells (HepG2 cells [5]; HepG2, 5 µg/mL) [%] | G2/M cells (HepG2 cells [5]; HepG2, 5 µg/mL) [%] | S cells (HepG2 cells [5]; HepG2, 5 µg/mL) [%] | Sub-G1 cells (HepG2 cells [5]; HepG2, 5 µg/mL) [%] | G0/G1 cells (HepG2 cells [5]; HepG2, 10 µg/mL) [%] | G2/M cells (HepG2 cells [5]; HepG2, 10 µg/mL) [%] | S cells (HepG2 cells [5]; HepG2, 10 µg/mL) [%] | Sub-G1 cells (HepG2 cells [5]; HepG2, 10 µg/mL) [%] | G0/G1 cells (HepG2 cells [5]; HepG2, 15 µg/mL) [%] | G2/M cells (HepG2 cells [5]; HepG2, 15 µg/mL) [%] | S cells (HepG2 cells [5]; HepG2, 15 µg/mL) [%] | Sub-G1 cells (HepG2 cells [5]; HepG2, 15 µg/mL) | also measured |
| --- | --- | --- | --- | --- | --- | --- | --- | --- | --- | --- | --- | --- | --- | --- | --- | --- | --- |
| CC(C)C[C@@H]1NC(=O)[C@H](CC(C)C)N(C)C(=O)[C@H](CC(C)C)NC(=O)[C@H](CC(C)C)N(C)C(=O)[C@H](Cc2ccccc2)NC1=O [Analog-1, Cyclo(Me-Leu-Leu-Phe-Me-Leu-Leu)] | 9.76 ± 0.18 (≈ 15.5 µM) | 13.03 ± 0.33 (≈ 20.8 µM) | 6.85 ± 0.26 (≈ 10.9 µM) | 5.85 ± 0.13 (≈ 9.32 µM) |  |  |  |  |  |  |  |  |  |  |  |  |  |
| CC(C)C[C@@H]1NC(=O)[C@H](CC(C)C)N(C)C(=O)[C@H](CC(C)C)NC(=O)[C@H](CC(C)C)N(C)C(=O)[C@@H](Cc2ccccc2)NC1=O [Analog-2, Cyclo(Me-Leu-Leu-D-Phe-Me-Leu-Leu)] | 9.5 ± 0.32 (≈ 15.1 µM) | 9.64 ± 0.27 (≈ 15.4 µM) | 4.95 ± 0.18 (≈ 7.88 µM) | 4.56 ± 0.22 (≈ 7.26 µM) |  |  |  |  |  |  |  |  |  |  |  |  |  |
| CC(C)C[C@@H]1NC(=O)[C@H](CC(C)C)N(C)C(=O)[C@H](CC(C)C)NC(=O)[C@@H](CC(C)C)N(C)C(=O)[C@H](Cc2ccccc2)NC1=O [Analog-3, Cyclo(Me-Leu-Leu-Phe-Me-D-Leu-Leu)] | 12.6 ± 0.29 (≈ 20.1 µM) | 18.16 ± 0.33 (≈ 28.9 µM) | 4.39 ± 0.26 (≈ 6.99 µM) | 7.71 ± 0.11 (≈ 12.3 µM) |  |  |  |  |  |  |  |  |  |  |  |  |  |
| CC(C)C[C@@H]1NC(=O)[C@H](CC(C)C)N(C)C(=O)[C@H](CC(C)C)NC(=O)[C@H](CC(C)C)N(C)C(=O)[C@H](CC(C)C)NC1=O [Galaxamide] (cyclo(LL[NMeL]L[NMeL])) |  |  |  |  | 71.2 | 9.18 | 19.6 | 1.30 | 73.7 | 9.03 | 17.2 | 8.81 | 70.8 | 9.46 | 19.8 | 13.1% | Q4, early apoptotic cells (HepG2 cells [6]; HepG2, 5 µg/mL): 1.8%; Q4, early apoptotic cells (HepG2 cells [6]; HepG2, 10 µg/mL): 10.6%; Q4, early apoptotic cells (HepG2 cells [6]; HepG2, 15 µg/mL): 12.1%; nuclei morphology after Hoechst 33342 staining (HepG2 cells [8]): slight shrinking of nuclei; IC50, antiproliferative activity, HepG2 [9]: 4.63 µg/mL (≈ 7.8 µM); IC50, antiproliferative activity, GRC-1 [10]: 4.26 µg/mL (≈ 7.17 µM); IC50, cytotoxicity on normal L02 [11]: > 40 µg/mL |
